Test results: patent publication EP0602814A1, “Crystal forms of optically active isoindolines and their use” (TAKEDA CHEMICAL INDUSTRIES, LTD., priority 1992, dated 1994)

Legend:
benzodiazepine receptor = assay: [3H]diazepam binding to benzodiazepine receptor (crude mitochondrial fraction of cerebral cortex); set-up: species or system male SD rats; details: inhibition of ³H-diazepam (2 nM) binding by 50%, 4 °C, 20 minutes, Tris-HCl pH 7.4; read-out: IC₅₀
Description: The affinity of the compound of the present invention to a benzodiazepine receptor was investigated using radioactive [³H] diazepam.
Capability of specific binding to a benzodiazepin receptor was determined in accordance with the method described in the literature [Nature, 266, 732 (1977); European J. Pharmacol., 48, 263 (1978)]. Specifically, a crude mitochondrial fraction obtained from the cerebral cortex of male SD rats at 9 to 10 weeks of age was suspended in 50 mM Tris-HCL buffer (pH 7.4), and incubated, together with several concentrations of the subject drug and ³H-diazepam (final concentration 2 nM), at 4 °C for 20 minutes. This suspension was then filtered through a Whatman GF/B glass fiber filter, and the ³H-diazepam radioactivity on the filter was measured using a liquid scintillation counter. The concentration of the subject drug at which ³H-diazepam binding was inhibited by 50% was taken as the IC₅₀ value.

Male rats (SD/JCL) = assay: Antianxiety action (Vogel method, anticonflict water drinking test); assay type: in vivo; details: for Minimum Effective Dose (MED): rats; for antianxiety action stronger than that of the racemic compounds: ratio of MED of the racemic compound to MED of the optically active compound (Table 2)

Row | Compound | IC50 (benzodiazepine receptor) [nM] | Minimum Effective Dose (MED) (Male rats (SD/JCL); p.o., 30 minutes after dosing, water drinking frequency in 3 minutes) | Minimum Effective Dose (MED) (Male rats (SD/JCL); i.p., Vogel method) | antianxiety action stronger than that of the racemic compounds (Male rats (SD/JCL)) [times]
1 | O=C(CC1c2ccccc2C(=O)N1c1ccc2ccc(Cl)nc2n1)N1CCC2(CC1)OCCO2 (racemic) [Racemic compound of Example 1, 2-(7-chloro-1,8-naphthylidin-2-yl)-3-[(1,4-dioxa-8-azaspiro[4.5]dec-8-yl)carbonylmethyl]isoindolin-1-one, reference compound] | 0.38 | 10 mg/kg, p.o. | – | –
2 | O=C(CC1c2ccccc2C(=O)N1c1ccc2ccc(Cl)nc2n1)N1CCC(O)CC1 (racemic) [Racemic compound of Example 3, 2-(7-chloro-1,8-naphthylidin-2-yl)-3-[(4-hydroxypiperidin-1-yl)carbonylmethyl]isoindolin-1-one, reference compound] | 2.14 | – | 20 mg/kg, i.p. | –
3 | O=C(C[C@H]1c2ccccc2C(=O)N1c1ccc2ccc(Cl)nc2n1)N1CCC2(CC1)OCCO2 [Example 1, (S)-(+)-2-(7-chloro-1,8-naphthylidin-2-yl)-3-[(1,4-dioxa-8-azaspiro[4.5]dec-8-yl)carbonylmethyl]isoindolin-1-one] | 0.32 | – | – | 8
4 | O=C(C[C@H]1c2ccccc2C(=O)N1c1ccc2ccc(Cl)nc2n1)N1CCC(O)CC1 [Example 3, (S)-(+)-2-(7-chloro-1,8-naphthylidin-2-yl)-3-[(4-hydroxypiperidin-1-yl)carbonylmethyl]isoindolin-1-one] | 0.92 | – | Compound in Example 3 5.0 mg/kg, i.p. | 4
